Test results from the supplement of paper PMC10307832.

Tests used:
Experiment in all cases: relative viability (nuclei count vs DMSO), 5 days (fraction); higher = more cells survive
PAC-1 + Lapatinib = compound: C=CCc1cccc(/C=N/NC(=O)CN2CCN(Cc3ccccc3)CC2)c1O [PAC-1] + CS(=O)(=O)CCNCc1ccc(-c2ccc3ncnc(Nc4ccc(OCc5cccc(F)c5)c(Cl)c4)c3c2)o1 [Lapatinib] (partner 2 µM)
In short: (§1)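 Lung cancer cell lines were seeded in 1536-well plates and dosed by pin tool the next day, with either a single drug or a fixed anchor-drug dose combined with five library-drug doses (not always all listed) spaced in √10 steps. Five days later, one step fixed the cells and stained their nuclei (final 0.05% Triton X-100, 1% formaldehyde, 1 ug/ml Hoechst), and nuclei were counted on 4× images. Relative viability is the nuclei count in treated wells divided by the count in vehicle wells, and each value is the median of duplicate plates.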

BMX-IN-1 + Luminespib = compound: C=CC(=O)Nc1cc(-n2c(=O)ccc3cnc4ccc(-c5ccc(NS(C)(=O)=O)cc5)cc4c32)ccc1C [BMX-IN-1] + CCNC(=O)c1noc(-c2cc(C(C)C)c(O)cc2O)c1-c1ccc(CN2CCOCC2)cc1 [Luminespib] (partner 0.01 µM)
In short: as §1

Ibrutinib + Phenformin = compound: C=CC(=O)N1CCC[C@@H](n2nc(-c3ccc(Oc4ccccc4)cc3)c3c(N)ncnc32)C1 [Ibrutinib] + N=C(N)NC(=N)NCCc1ccccc1 [Phenformin] (partner 250 µM)
In short: as §1

BMX-IN-1 + Crizotinib = compound: C=CC(=O)Nc1cc(-n2c(=O)ccc3cnc4ccc(-c5ccc(NS(C)(=O)=O)cc5)cc4c32)ccc1C [BMX-IN-1] + C[C@@H](Oc1cc(-c2cnn(C3CCNCC3)c2)cnc1N)c1c(Cl)ccc(F)c1Cl [Crizotinib] (partner 1 µM)
In short: as §1

Row | Cell Line | relative viability (PAC-1 + Lapatinib; first compound 0.02 µM) | relative viability (PAC-1 + Lapatinib; first compound 0.06325 µM) | relative viability (PAC-1 + Lapatinib; first compound 0.2 µM) | relative viability (PAC-1 + Lapatinib; first compound 2 µM) | relative viability (BMX-IN-1 + Luminespib; first compound 0.02 µM) | relative viability (BMX-IN-1 + Luminespib; first compound 0.2 µM) | relative viability (BMX-IN-1 + Luminespib; first compound 0.6325 µM) | relative viability (BMX-IN-1 + Luminespib; first compound 2 µM) | relative viability (Ibrutinib + Phenformin; first compound 0.005 µM) | relative viability (Ibrutinib + Phenformin; first compound 0.01581 µM) | relative viability (Ibrutinib + Phenformin; first compound 0.05 µM) | relative viability (Ibrutinib + Phenformin; first compound 0.1581 µM) | relative viability (Ibrutinib + Phenformin; first compound 0.5 µM) | relative viability (BMX-IN-1 + Crizotinib; first compound 0.02 µM) | relative viability (BMX-IN-1 + Crizotinib; first compound 0.2 µM) | relative viability (BMX-IN-1 + Crizotinib; first compound 0.6325 µM) | relative viability (BMX-IN-1 + Crizotinib; first compound 2 µM)
1 | 201T | 0.98 | 1.01 | 1.1 | 1.05 | 1.07 | 1.1 | 1.09 | 0.98 | 0.449 | 0.443 | 0.442 | 0.429 | 0.412 | 1.03 | 1.05 | 1.09 | 1.05
2 | A549 | 0.935 | 0.804 | 1 | 1.06 | – | – | – | – | 0.21 | 0.135 | 0.159 | 0.163 | 0.152 | 0.986 | 1.22 | 0.945 | 0.738
3 | A-427 | 1.06 | 1.03 | 1.08 | 0.71 | 1.13 | 0.844 | 1.01 | 1.04 | 0.307 | 0.351 | 0.316 | 0.27 | 0.3 | 0.966 | 0.903 | 1.09 | 0.887
4 | ABC-1 | 1.35 | 1.22 | 1.18 | 1.07 | 0.586 | 0.571 | 0.359 | 0.322 | 0.185 | 0.271 | 0.214 | 0.24 | 0.29 | 1.22 | 1.27 | 0.69 | 0.904
5 | BEN | 0.629 | 0.604 | 0.671 | 0.75 | 0.417 | 0.332 | 0.328 | 0.364 | – | 0.23 | 0.282 | 0.283 | 0.247 | 1.25 | 1.05 | 0.537 | 0.901
6 | CAL-12T | 0.604 | 0.788 | 0.665 | 0.599 | 0.578 | 0.483 | 0.392 | 0.712 | 0.546 | 0.447 | 0.362 | 0.651 | 0.35 | 0.798 | 0.827 | 0.618 | 0.562
7 | COR-L23 | 1.06 | 0.963 | 0.833 | 0.928 | 0.807 | 0.782 | 1.07 | 0.548 | 0.491 | 0.408 | 0.454 | 0.472 | 0.445 | 0.942 | 0.641 | 0.864 | 0.767
8 | COR-L 105 | 0.294 | 0.361 | 0.413 | 0.406 | 0.753 | 0.693 | 0.928 | 0.706 | 0.455 | 0.348 | 0.406 | 0.531 | 0.242 | 0.832 | 0.892 | 0.727 | 0.583
9 | Calu-6 | 1.06 | 1.08 | 1.01 | 1.18 | – | – | – | – | – | – | – | – | – | 0.925 | 0.886 | 0.927 | 0.988
10 | ChaGo-K-1 | – | – | – | – | 0.665 | 0.708 | 0.536 | 0.778 | 0.543 | 0.462 | 0.433 | 0.407 | 0.494 | 1.39 | 1.07 | 1.18 | 1.17
11 | EBC-1 | 0.184 | 0.218 | 0.23 | 0.225 | – | – | – | – | – | – | – | – | – | 0.195 | 0.202 | 0.162 | 0.197
12 | EKVX | 0.203 | 0.18 | 0.208 | 0.176 | 0.945 | 0.835 | 0.85 | 0.857 | 0.224 | 0.245 | 0.226 | 0.227 | 0.13 | 1.18 | 1.29 | 0.882 | 1.01
13 | EMC-BAC-2 | 0.841 | 0.865 | 0.899 | 0.974 | 1.36 | 1.33 | 1.4 | 1.1 | 0.465 | 0.509 | 0.53 | 0.571 | 0.507 | 0.858 | 0.877 | 0.797 | 0.718
14 | EPLC-272H | – | 1.2 | 0.978 | 0.942 | 0.208 | 0.223 | 0.242 | 0.247 | 0.314 | 0.286 | 0.283 | 0.274 | 0.207 | 1.04 | 0.968 | 0.96 | 0.96
15 | H3255 | 0.268 | 0.256 | 0.246 | 0.269 | 0.851 | 0.907 | 1.02 | 0.927 | 0.364 | 0.344 | 0.382 | 0.375 | 0.233 | 0.969 | 1.11 | 0.968 | 0.924
16 | HARA | 0.698 | 0.875 | 0.796 | 0.905 | 1.01 | 0.207 | 0.683 | 0.682 | 0.445 | 0.377 | 0.357 | 0.406 | 0.331 | 1.39 | 1.24 | 1.16 | 1.09
17 | HCC-15 | 0.907 | 0.945 | 0.814 | 0.861 | 0.571 | 0.363 | 0.297 | 0.369 | 0.571 | 0.477 | 0.524 | 0.408 | 0.53 | 0.991 | 0.945 | 0.953 | 0.762
18 | HCC-44 | 1.06 | 1.04 | 0.962 | 1.03 | 1.29 | 1.27 | 0.821 | 1.04 | 0.138 | 0.182 | 0.148 | 0.11 | 0.232 | 0.907 | 0.834 | 0.944 | 0.889
19 | HCC-78 | 0.753 | 0.822 | 0.657 | 1.05 | – | – | – | – | 0.541 | 0.787 | 0.575 | 0.616 | 0.559 | 0.379 | 0.347 | 0.335 | 0.405
20 | HCC-366 | 1.07 | 1.03 | 1.06 | 0.976 | – | – | – | – | 0.63 | 0.595 | 0.593 | 0.543 | 0.665 | 0.582 | 1.01 | 0.586 | 0.703
21 | HCC-827 | 0.193 | 0.194 | 0.186 | 0.198 | 0.589 | 0.805 | 0.716 | 0.713 | 0.408 | 0.358 | 0.304 | 0.431 | 0.181 | 0.972 | 0.939 | 0.939 | 0.97
